The assay in a line: ratings of trustworthiness and attractiveness of unfamiliar faces (FIG. 3). Type of assay: in vivo, human. As to conditions: people under the influence of the hormone compared to control groups who were not. The source says:
As has been explained, the first set 14 of active ingredients create a reaction in the body that induces the production of hormones and/or pheromones. Hormones, such as oxytocin and its kind promote improved social behavior and enhances positive social perceptions of others. […] Oxytocin also masks negative personality perceptions that masculinized faces tend to elicit.

SMILES strings stand for the structures.

`CC[C@H](C)[C@@H]1NC(=O)[C@H](Cc2ccc(O)cc2)NC(=O)[C@@H](N)CSSC[C@@H](C(=O)N2CCC[C@H]2C(=O)N[C@@H](CC(C)C)C(=O)NCC(N)=O)NC(=O)[C@H](CC(N)=O)NC(=O)[C@H](CCC(N)=O)NC1=O` [oxytocin]: the “ratings of "trustworthiness" and "attractiveness" of unfamiliar faces” value is given as “higher ratings”.

The record behind these values is patent US20250367106A1, “Topical Formulation for Improving Skin Quality and Inducing the Release of Oxytocin” (OX Technology IP LLC, priority 2024, published 2025).
